The source of these data is patent US8853213B2, “Bicyclic compound for modulating G protein-coupled receptors” (Hanmi Pharm. Co., Ltd, priority 2011, dated 2014).

For the test, the target named is T1, GPR119 (Homo sapiens, UniProt Q8TDV5).
T1 construct: host or cells: CHO-K1 (CRE-bla reporter, doxycycline-induced)
T1 sequence (Q8TDV5 1-335): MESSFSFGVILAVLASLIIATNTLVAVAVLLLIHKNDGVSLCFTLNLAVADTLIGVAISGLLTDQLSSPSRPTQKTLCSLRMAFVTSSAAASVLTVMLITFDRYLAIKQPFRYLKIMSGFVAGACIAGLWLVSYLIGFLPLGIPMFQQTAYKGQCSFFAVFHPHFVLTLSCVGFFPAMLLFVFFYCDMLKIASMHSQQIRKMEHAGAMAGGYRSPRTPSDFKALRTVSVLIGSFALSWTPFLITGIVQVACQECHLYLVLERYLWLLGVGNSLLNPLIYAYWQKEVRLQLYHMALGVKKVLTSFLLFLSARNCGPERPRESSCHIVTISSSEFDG
The experiment in a line: Controlling Effect of GPR119 in CRE-bla CHO-K1 Cells (EC50). The format is cell-based. The following applies: GPR119 CRE-bla CHO-K1 cell line, 5 hr incubation with compound, β-lactamase LiveBLAzer-FRET B/G readout; read-out: controlling effect against GPR119 in CRE-bla CHO-K1 cell line (EC50). The method, boiled down:
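CHO-K1 cells carrying GPR119 and a CRE-β-lactamase reporter, induced with doxycycline for 16-20 h at 37° C, then exposed to compounds in 10-fold dilutions for 5 h. CCF4-AM FRET substrate added for 2 h at room temperature; blue/green fluorescence (409 ex, […]) read and EC50 derived.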

pEC50: −log10 of the molar value.

The pEC50 is the negative decadic logarithm of the EC50, by convention in mol/L. In the case of `CC(C)c1noc(N2CCC(Oc3ncnc4c(-c5ccc(S(=O)(=O)C(C)C)cc5)csc34)CC2)n1` [Example 105, 4-[1-(3-isopropyl-[1,2,4]oxadiazol-5-yl)-piperidin-4-yloxy]-7-(4-isopropylsulfonyl-phenyl)-thieno[3,2-d]pyrimidine], the pEC50 was greater than 7.00.
The same measure for `CCCS(=O)(=O)c1ccc(-c2csc3c(OC4CCN(c5nc(C(C)C)no5)CC4)ncnc23)cc1` [Example 106, 4-[1-(3-isopropyl-[1,2,4]oxadiazol-5-yl)-piperidin-4-yloxy]-7-(4-propylsulfonyl-phenyl)-thieno[3,2-d]pyrimidine]: greater than 7.00.
The same measure for `CCCS(=O)(=O)c1ccc(-c2csc3c(OC4CCN(c5nc(C(C)C)no5)CC4)ncnc23)c(F)c1` [Example 107, 7-(2-fluoro-(4-propylsulfonyl)-phenyl)-4-[1-(3-isopropyl-[1,2,4]oxadiazol-5-yl)-piperidin-4-yloxy]-thieno[3,2-d]pyrimidine]: greater than 7.00.
The same measure for `CC(C)c1noc(N2CCC(Oc3ncnc4c(-c5ccc(S(=O)(=O)C6CCCC6)cc5)csc34)CC2)n1` [Example 108, 7-(4-cyclopentylsulfonyl-phenyl)-4-[1-(3-isopropyl-[1,2,4]oxadiazol-5-yl)-piperidin-4-yloxy]-thieno[3,2-d]pyrimidine]: greater than 7.00; for `CC(C)(C)OC(=O)N1CCC(Nc2ncnc3c(-c4ccc(S(C)(=O)=O)cc4)csc23)CC1` [Example 109, tert-butyl 4-(7-(4-methanesulfonyl-phenyl)thieno[3,2-d]pyrimidin-4-ylamino)piperidin-1-carboxylate]: 6.00 to 7.00; for `CS(=O)(=O)c1ccc(-c2csc3c(NC4CCNCC4)ncnc23)cc1` [Example 110, 7-(4-methanesulfonyl-phenyl)-N-(piperidin-4-yl)thieno[3,2-d]pyrimidin-4-amine]: less than 6.00.
`CCc1cnc(N2CCC(Nc3ncnc4c(-c5ccc(S(C)(=O)=O)cc5)csc34)CC2)nc1` [Example 111, N-(1-(5-ethylpyrimidin-2-yl)piperidin-4-yl)-7-(4-methanesulfonyl-phenyl)thieno[3,2-d]pyrimidin-4-amine]: the pEC50 is less than 6.00.
The same measure for `CN(c1ncnc2c(-c3ccc(S(C)(=O)=O)cc3)csc12)C1CCN(C(=O)OC(C)(C)C)CC1` [Example 112, tert-butyl 4-(methyl(7-(4-methanesulfonyl-phenyl)thieno[3,2-d]pyrimidin-4-yl)amino)piperidin-1-carboxylate]: greater than 7.00; for `CCc1cnc(N2CCC(N(C)c3ncnc4c(-c5ccc(S(C)(=O)=O)cc5)csc34)CC2)nc1` [Example 114, [1-(5-ethylpyrimidin-2-yl)-piperidin-4-yl]-[7-(4-methanesulfonyl-phenyl)-thieno[3,2-d]pyrimidin-4-yl]-methylamine]: less than 6.00.
The same measure for `CCN(c1ncnc2c(-c3ccc(S(C)(=O)=O)cc3)csc12)C1CCN(c2ccc(C(F)(F)F)cn2)CC1` [Example 115, Ethyl-[7-(4-methanesulfonyl-phenyl)-thieno[3,2-d]pyrimidin-4-yl]-(5′-trifluoromethyl-3,4,5,6-tetrahydro-2H-[1,2′]bipyridinyl-4-yl)amine]: less than 6.00; for `Cn1cc(-c2ccc(S(C)(=O)=O)cc2)c2ncnc(NC3CCN(C(=O)OC(C)(C)C)CC3)c21` [Example 116, tert-butyl 4-(5-methyl-7-(4-methanesulfonyl-phenyl)-5H-pyrrolo[3,2-d]pyrimidin-4-ylamino)piperidin-1-carboxylate]: less than 6.00.
The same measure for `CC(C)c1noc(C2CCN(c3ncnc4c(-c5ccc(S(C)(=O)=O)cc5)cn(C)c34)CC2)n1` [Example 117, 3-isopropyl-5-(1-(5-methyl-7-(4-methanesulfonyl-phenyl)-5H-pyrrolo[3,2-d]pyrimidin-4-yl)piperidin-4-yl)-1,2,4-oxadiazole]: 6.00 to 7.00; for `CC(C)c1noc(C2CCN(c3ncnc4c(-c5ccc(-n6cnnn6)cc5)csc34)CC2)n1` [Example 118, 5-(1-(7-(4-(1H-tetrazol-1-yl)phenyl)thieno[3,2-d]pyrimidin-4-yl)piperidin-4-yl)-3-iso propyl-1,2,4-oxadiazole]: 6.00 to 7.00; for `CC(C)(C)c1noc(N2CCC(Oc3ncnc4c(-c5ccc(-n6cncn6)cc5)csc34)CC2)n1` [Example 119, 5-(4-(7-(4-(1H-1,2,4-triazol-1-yl)phenyl)thieno[3,2-d]pyrimidin-4-yloxy)piperidin-1-yl)-3-tert-butyl-1,2,4-oxadiazole]: greater than 7.00.
With `Cn1cc(-c2ccc(-n3cnnn3)cc2)c2ncnc(OC3CCN(C(=O)OC(C)(C)C)CC3)c21` [Example 120, tert-butyl 4-(7-(4-(1H-tetrazol-1-yl)phenyl)-5-methyl-5H-pyrrolo[3,2-d]pyrimidin-4-yloxy)piperidin-1-carboxylate], the pEC50 was greater than 7.00.
For `CCc1cnc(N2CCC(Oc3ncnc4c(-c5ccc(N)cc5)cn(C)c34)CC2)nc1` [Example 121, 4-(4-(1-(5-ethylpyrimidin-2-yl)piperidin-4-yloxy)-5-methyl-5H-pyrrolo[3,2-d]pyrimidin-7-yl)benzenamine], the pEC50 is less than 6.00.
As to `CCc1cnc(N2CCC(Oc3ncnc4c(-c5ccc(-n6cnnn6)cc5)cn(C)c34)CC2)nc1` [Example 122, 7-(4-(1H-tetrazol-1-yl)phenyl)-4-(1-(5-ethylpyrimidin-2-yl)piperidin-4-yloxy)-5-methyl-5H-pyrrolo[3,2-d]pyrimidine], the pEC50 was greater than 7.00.
On to `Cn1cc(-c2ccc(-n3cnnn3)cc2)c2ncnc(OC3CCN(c4ncc(C(F)(F)F)cn4)CC3)c21` [Example 123, 7-(4-(1H-tetrazol-1-yl)phenyl)-5-methyl-4-(1-(5-(trifluoromethyl)pyrimidin-2-yl)piperidin-4-yloxy)-5H-pyrrolo[3,2-d]pyrimidine], for which the pEC50 is greater than 7.00.
For the compound `Cn1cc(-c2ccc(-n3cnnn3)cc2)c2ncnc(O[C@H]3CCN(C(=O)OC(C)(C)C)C3)c21` [Example 125, (S)-tert-butyl 3-[5-methyl-7-(4-tetrazol-1-yl-phenyl)-5H-pyrrolo[3,2-d]pyrimidin-4-yloxy)pyrrolidin-1-carboxylate], the pEC50 is less than 6.00.
